These results are taken from patent US20090118255A1, “Crp Lowering Agent” (TAKEDA PHARMACEUTICAL COMPANY LIMITED, priority 2004, published 2009).

In assay [1] the test system is plasma CRP. Put plainly: Plasma CRP lowering effect, WHHL rat, 28 days oral with mixed food. The format is in vivo. The settings on record: male WHHL rat, mean ± SE, N = 11. As to the method: To 2 month-old male WHHL […] (11 per group) was orally administered with a mixed food a vehicle or Test compound 1 at a dose of 100 and 200 mg/kg for 28 days. Before administration and after 28 days administration, plasma CRP level was determined using CRPα Test Wako (Wako Pure Chemical Industries, Ltd.) with Hitachi, Ltd. Autoanalyzer 7070 (Table 1).

The subject of assay [2] is CRP. The following applies: literature reports (Ballantyne 2003; Sager 2003); cited from earlier work.

The structures appear in SMILES notation.

Consider `COc1cccc([C@H]2O[C@H](CC(=O)N3CCC(CC(=O)O)CC3)C(=O)N(CC(C)(C)COC(C)=O)c3ccc(Cl)cc32)c1OC` [Test compound 1, N-[[(3R,5S)-1-(3-acetoxy-2,2-dimethylpropyl)-7-chloro-5-(2,3-dimethoxyphenyl)-2-oxo-1,2,3,5-tetrahydro-4,1-benzoxazepin-3-yl]acetyl]piperidine-4-acetic acid], for which the “Plasma CRP level, after 28 days administration” value in assay [1] (100 mg/kg orally with mixed food for 28 days) is given as 3.2 ± 0.6 mg/dL; in assay [1] (200 mg/kg orally with mixed food for 28 days, *P < 0.025 vs. control), 2.1 ± 0.2* mg/dL. The “Plasma CRP level, value of before administration” value is recorded as 4.4 ± 0.4 mg/dL in assay [1] (baseline of the 100 mg/kg group) and 4.4 ± 0.6 mg/dL in assay [1] (baseline of the 200 mg/kg group).
As for `O=C1[C@H](CC[C@H](O)c2ccc(F)cc2)[C@@H](c2ccc(O)cc2)N1c1ccc(F)cc1` [ezetimibe], the CRP lowering activity result in assay [2] is on record as “no CRP lowering activity”.
